From patent US20250205211A1, “TYK2 INHIBITORS AND USES THEREOF” (Alumis Inc., priority 2022, published 2025)

Assay: FIH study: single doses and seven-day courses of Compound A in healthy participants (safety, pharmacokinetics)
Format: in vivo, human
[1] = single dose 100 mg, FIH study, mean

Compound: [2H]C([2H])([2H])CC(=O)c1cnc(NC(=O)C2CC2)cc1Nc1cccc(-c2ncn(C([2H])([2H])[2H])n2)c1OC [Compound A, N-(4-((2-Methoxy-3-(1-(methyl-d3)-1H-1,2,4-triazol-3-yl)phenyl)amino)-5-(propanoyl-3,3,3-d3)pyridin-2-yl)cyclopropanecarboxamide]
- AUC (human, in vivo, oral, seven-day course, 40 mg q12h, read-out: mean AUC from time 0 to 12 hours at steady state [AUCo-12,ss]): 3620 ng·h/mL
- Cmax (human, in vivo, oral, single dose 100 mg, FIH study, highest individual value): 1160 ng/mL
- AUC(0-inf) (human, in vivo, oral, single dose 100 mg, FIH study, highest individual value, read-out: AUC0-inf highest value): 13700 ng·h/mL
- mean Cmax at steady state [Cmax,ss] (seven-day course, 40 mg q12h): 433 ng/mL
- tolerability of seven-day courses (seven-day courses of up to 40 mg q12h): well tolerated
- AUC0-inf averaged [1]: 11,286 ng*h/mL
- Cmax averaged [1]: 949 ng/mL
- safety of single doses (single doses of up to 100 mg): without clinically significant safety concerns
